According to BindingDB's records for doi:10.1016/j.bmcl.2005.03.029 (Duquesne University, 2005):

Target: T1, Dihydrofolate reductase (Escherichia coli (strain K12), UniProt O30463+P0ABQ4)
T1 sequence (P0ABQ4 whole entry): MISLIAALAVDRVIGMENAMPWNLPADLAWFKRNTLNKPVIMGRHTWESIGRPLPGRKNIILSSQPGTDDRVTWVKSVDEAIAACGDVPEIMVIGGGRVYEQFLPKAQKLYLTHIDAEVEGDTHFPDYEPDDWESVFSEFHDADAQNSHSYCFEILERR
T1 sequence (O30463 whole entry): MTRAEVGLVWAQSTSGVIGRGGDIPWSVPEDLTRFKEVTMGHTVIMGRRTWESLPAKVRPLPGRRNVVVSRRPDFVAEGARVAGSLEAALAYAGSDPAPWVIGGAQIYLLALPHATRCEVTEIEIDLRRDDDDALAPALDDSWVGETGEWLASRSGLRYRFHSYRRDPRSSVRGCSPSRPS
Assay: Inhibitory concentration against Escherichia coli dihydrofolate reductase

CN(Cc1ccc2c(n1)C(N)N=C(N)N2)c1ccc(C(=O)NC(CCC(=O)O)C(=O)O)cc1 (stereo unspecified) [2-{4-[(2,4-Diamino-4,4a-dihydro-pyrido[3,2-d]pyrimidin-6-ylmethyl)-methyl-amino]-benzoylamino}-pentanedioic acid]
IC50: 660 µM
